Experimental data from ChEMBL document CHEMBL1133435, “Syntheses and evaluation of naphthalenyl- and chromenyl-pyrrolyl-benzoic acids as potent and selective retinoic acid receptor alpha agonists” (Bioorg Med Chem Lett, 2000).

What was measured:
[1] = molecular target: T1, Retinoic acid receptor gamma (Homo sapiens) (UniProt P13631); experiment: Binding affinity for Retinoic acid receptor gamma relative to ATRA
T1 sequence (whole entry): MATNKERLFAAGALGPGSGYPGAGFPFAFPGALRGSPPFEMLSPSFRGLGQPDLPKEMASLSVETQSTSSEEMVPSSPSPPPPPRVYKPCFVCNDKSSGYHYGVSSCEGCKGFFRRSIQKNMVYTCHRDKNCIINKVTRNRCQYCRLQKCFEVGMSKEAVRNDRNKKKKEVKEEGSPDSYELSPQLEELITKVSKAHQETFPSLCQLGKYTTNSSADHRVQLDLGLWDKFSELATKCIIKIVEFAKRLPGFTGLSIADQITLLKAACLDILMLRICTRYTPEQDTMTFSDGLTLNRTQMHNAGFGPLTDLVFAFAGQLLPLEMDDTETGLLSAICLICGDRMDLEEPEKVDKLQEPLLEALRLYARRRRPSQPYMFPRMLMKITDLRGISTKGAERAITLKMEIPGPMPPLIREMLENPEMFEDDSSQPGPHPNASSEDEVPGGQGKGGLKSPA

[2] = molecular target: T1, Retinoic acid receptor gamma (Homo sapiens); experiment: Relative transcriptional activation in CV-1 cells expressing RAR gamma receptor compared to ATRA; format: functional, cell-based; details: Cercopithecidae
[3] = molecular target: T2, Retinoic acid receptor beta (Homo sapiens) (UniProt P10826); experiment: Relative transcriptional activation in CV-1 cells expressing RAR beta receptor compared to ATRA; format: functional, cell-based; details: Cercopithecidae
T2 sequence (whole entry): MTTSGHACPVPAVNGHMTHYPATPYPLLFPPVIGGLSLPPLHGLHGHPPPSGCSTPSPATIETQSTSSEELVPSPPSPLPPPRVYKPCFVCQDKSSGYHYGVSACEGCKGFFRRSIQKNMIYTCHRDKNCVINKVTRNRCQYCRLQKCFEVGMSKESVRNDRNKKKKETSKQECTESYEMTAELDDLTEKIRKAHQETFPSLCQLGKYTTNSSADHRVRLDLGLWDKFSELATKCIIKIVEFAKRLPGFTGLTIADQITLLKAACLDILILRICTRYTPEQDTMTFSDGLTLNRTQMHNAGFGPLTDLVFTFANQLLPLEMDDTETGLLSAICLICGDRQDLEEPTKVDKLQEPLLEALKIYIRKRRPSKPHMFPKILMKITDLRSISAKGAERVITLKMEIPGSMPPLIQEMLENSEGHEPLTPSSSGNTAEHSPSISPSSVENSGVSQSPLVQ

[4] = molecular target: T3, Retinoic acid receptor alpha (Homo sapiens) (UniProt P10276); experiment: Relative transcriptional activation in CV-1 cells expressing RAR alpha receptor compared to ATRA; format: functional, cell-based; details: Cercopithecidae
T3 sequence (whole entry): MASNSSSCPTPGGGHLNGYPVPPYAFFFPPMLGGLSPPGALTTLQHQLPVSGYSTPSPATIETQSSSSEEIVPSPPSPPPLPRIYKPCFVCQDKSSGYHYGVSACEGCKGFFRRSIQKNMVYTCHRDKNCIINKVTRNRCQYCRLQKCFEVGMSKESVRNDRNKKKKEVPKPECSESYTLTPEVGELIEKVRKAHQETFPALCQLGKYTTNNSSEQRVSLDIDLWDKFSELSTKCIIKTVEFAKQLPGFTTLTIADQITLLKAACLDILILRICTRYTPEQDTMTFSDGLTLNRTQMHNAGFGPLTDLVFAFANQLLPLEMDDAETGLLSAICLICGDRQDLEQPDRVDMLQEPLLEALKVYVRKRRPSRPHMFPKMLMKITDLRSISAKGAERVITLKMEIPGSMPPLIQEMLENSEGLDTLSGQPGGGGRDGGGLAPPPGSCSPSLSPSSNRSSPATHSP

[5] = molecular target: T2, Retinoic acid receptor beta (Homo sapiens); experiment: Binding affinity for Retinoic acid receptor beta relative to ATRA
[6] = molecular target: T3, Retinoic acid receptor alpha (Homo sapiens); experiment: Binding affinity for Retinoic acid receptor alpha relative to ATRA
[7] = molecular target: T2, Retinoic acid receptor beta (Homo sapiens); experiment: Relative transcriptional activation in CV-1 cells expressing RAR beta receptor compared to ATRA; Not detectable; format: functional, cell-based; details: Cercopithecidae
[8] = molecular target: T1, Retinoic acid receptor gamma (Homo sapiens); experiment: Relative transcriptional activation in CV-1 cells expressing RAR gamma receptor compared to ATRA; Not detectable; format: functional, cell-based; details: Cercopithecidae
[9] = molecular target: T3, Retinoic acid receptor alpha (Homo sapiens); experiment: Binding affinity for Retinoic acid receptor alpha relative to ATRA; Not detectable
[10] = molecular target: T3, Retinoic acid receptor alpha (Homo sapiens); experiment: Relative transcriptional activation in CV-1 cells expressing RAR alpha receptor compared to ATRA; Not detectable; format: functional, cell-based; details: Cercopithecidae
[11] = molecular target: T2, Retinoic acid receptor beta (Homo sapiens); details: Cercopithecidae; CV-1
Description: Transcriptional activation in CV-1 cells expressing RAR beta receptor

[12] = molecular target: T3, Retinoic acid receptor alpha (Homo sapiens); details: Cercopithecidae; CV-1
Description: Transcriptional activation in CV-1 cells expressing RAR alpha receptor

HL-60 = experiment: Induction of HL-60 cell differentiation; format: functional; details: Homo sapiens

| Relative IC50 [1] [nM] | Relative EC30 [2] [nM] | Relative EC30 [3] [nM] | Relative EC30 [4] [nM] | Relative IC50 [5] [nM] | Relative IC50 [6] [nM] | Relative EC30 [7] [µM] | Relative EC30 [8] [µM] | Relative IC50 [9] [nM] | Relative EC30 [10] [µM] | EC30 [11] [nM] | EC30 [12] [nM] | Structure (SMILES) | EC30 (HL-60) [µM] |
| --- | --- | --- | --- | --- | --- | --- | --- | --- | --- | --- | --- | --- | --- |
| > 1000 | 3600 | 240 | 1.8 | > 1000 | 9.7 | – | – | – | – | – | – | Cc1ccc(C)c2c1C=C(c1ccc(-c3ccc(C(=O)O)cc3)[nH]1)CO2 | – |
| > 1000 | – | – | 49 | > 1000 | 15 | > 10 | > 10 | – | – | – | – | Cc1cccc2ccc(-c3ccc(-c4ccc(C(=O)O)cc4)[nH]3)cc12 | – |
| 0.67 | 0.24 | 0.2 | 0.27 | 0.34 | 0.49 | – | – | – | – | – | – | CC(/C=C/C=C(\C)c1ccc2c(c1)C(C)(C)CCC2(C)C)=C\C(=O)O | – |
| 227 | 660 | 11 | 20 | 49 | 2.7 | – | – | – | – | – | – | CC(/C=C/C=C(\C)c1ccc2c(C)ccc(C)c2c1)=C\C(=O)O | – |
| > 1000 | 5250 | 1030 | 4.5 | > 1000 | 50 | – | – | – | – | – | – | Cc1cccc2c1C=C(c1ccc(-c3ccc(C(=O)O)cc3)[nH]1)CO2 | – |
| > 1000 | – | 880 | > 10000 | > 1000 | 1.4 | – | > 10 | – | – | – | – | O=C(O)c1ccc(-c2ccc(-c3ccc4cccc(-c5ccccc5)c4c3)[nH]2)cc1 | – |
| > 1000 | – | – | – | > 1000 | – | > 10 | > 10 | > 1000 | > 10 | – | – | Cc1c(C)c(C)c2cc(-c3ccc(-c4ccc(C(=O)O)cc4)[nH]3)ccc2c1C | – |
| > 1000 | 2200 | 250 | 2.8 | > 1000 | 24 | – | – | – | – | – | – | Cc1ccc(C)c2cc(-c3ccc(-c4ccc(C(=O)O)cc4)[nH]3)ccc12 | – |
| – | – | – | – | – | – | – | – | – | – | 0.69 | 1.1 | CC1=C(/C=C/C(C)=C/C=C/C(C)=C/C(=O)O)C(C)(C)CCC1 | – |
| > 1000 | – | – | 90 | > 1000 | – | > 10 | > 10 | > 1000 | – | – | – | Cc1cc(C)c2ccc(-c3ccc(-c4ccc(C(=O)O)cc4)[nH]3)cc2c1 | – |
| 910 | 88 | 78 | 1.1 | > 1000 | < 1 | – | – | – | – | – | – | CC(C)c1cccc2ccc(-c3ccc(-c4ccc(C(=O)O)cc4)[nH]3)cc12 | 0.1 |
